Reference: PMC5834492, “Antimycobacterial drug discovery using Mycobacteria-infected amoebae identifies anti-infectives and new molecular targets” (Scientific Reports, 2018)
Read-outs that look alike come from different tables or passages of the source.

Assays:
M. marinum luxCDABE = format: cell-based, Mycobacterium marinum; details: 10 µM
M. marinum GFP = format: cell-based, Mycobacterium marinum; details: 10 µM; antibiotic assay
[1] = test system: M. marinum in A. castellanii; format: cell-based, Mycobacterium marinum; details: 10 µM
[2] = test system: M. marinum in BV2 microglial cells; format: cell-based, Mycobacterium marinum; details: for BV2 / M. marinum normalised growth, control=1.00, mean / hit in BV2/M. marinum assay True/False: 10 µM
D. discoideum GFP-ABD = details: 10 µM
Mtb H37Rv in THP-1 = test system: Mtb H37Rv in THP-1; parameters: method as in Sorrentino et al, 2015; details: ref Sorrentino et al, 2015, cited from earlier work; for Extracellular MIC90/ Inracellular MIC90: ratio
Mtb H37Rv = test system: Mtb H37Rv; parameters: method as in Sorrentino et al, 2015; details: ref Sorrentino et al, 2015; cited from earlier work
[3] = THP1 / Mtb H37Rv infection assay

| SMILES | M. marinum luxCDABE normalised growth, control = 1.00, mean (M. marinum luxCDABE) | M. marinum luxCDABE normalised growth, control=1.00, mean (M. marinum luxCDABE) | M. marinum GFP normalised growth, control=1.00, mean (M. marinum GFP) | A. castellanii / M. marinum normalised growth, control=1.00, mean [1] | Hits A. castellanii/M. marinum assay True/False [1] | IC50 [2] | BV2 / M. marinum normalised growth, control=1.00, mean [2] | hit in BV2/M. marinum assay True/False [2] | D. discoideum GFP-ABD normalised growth, control = 1.00, mean (D. discoideum GFP-ABD) | D. discoideum GFP-ABD normalised growth, control=1.00, mean (D. discoideum GFP-ABD) | Intracelullar MIC90 in THP-1 (Mtb H37Rv in THP-1; Mtb H37Rv-infected THP1 cells) | Intracelullar MIC90 in THP-1 (Mtb H37Rv in THP-1; [3]) | Extracellular MIC90/ Inracellular MIC90 (Mtb H37Rv in THP-1) | Extracellular MIC90 (Mtb H37Rv) |
| --- | --- | --- | --- | --- | --- | --- | --- | --- | --- | --- | --- | --- | --- | --- |
| Cc1ccc2nc(C(F)(F)F)c(C(=O)NCc3ccc(C)o3)n2c1 [GSK1829728A] | 0,00 | 0.00 | 0.10 | 0.78 | FALSE | 4.03 µM | 0.43 | TRUE | 1,01 | 1.01 | 1.85 µM | 1.85 µM | 1.84 | 3.4 µM |
| Cc1ccc2nc(C(F)(F)F)c(C(=O)NCc3cccs3)n2c1 [GSK1829729A] | 0,00 | 0.00 | 0.0432 | 0.52 | FALSE | 0.08 µM | 0.48 | TRUE |  | 0.86 | 0.61 µM | 0.61 µM | 1.47 | 0.9 µM |
| Cc1ccc2nc(C(F)(F)F)c(C(=O)NCc3ccc4c(c3)OCO4)n2c1 [GSK1829732A] | 0,00 | 0.00 | 0.06 | 0.56 | FALSE | 3.52 µM | 0.34 | TRUE | 1,00 | 1.00 | 1.85 µM | 1.85 µM | 0.59 | 1.1 µM |
| Cc1ccc2nc(C(F)(F)F)c(C(=O)NCc3cccc(OC(C)C)c3)n2c1 [GSK1829733A] |  | 0.00 | 0.09 | 0.68 |  | 3.35 µM | 0.69 |  |  | 1.05 |  | 1.85 µM | 1.13 | 2.1 µM |
| Cc1ccc2nc(C(F)(F)F)c(C(=O)NCc3cc(Cl)cc(Cl)c3)n2c1 [GSK1829736A] | 0,00 | 0.00 | 0.04 | 0.60 | FALSE | 2.21 µM | 0.41 | TRUE |  | 0.93 | 0.61 µM | 0.61 µM | 1.47 | 0.9 µM |
| Cc1ccc2nc(C)c(C(=O)NCC(C)C)n2c1 [GSK1829816A] |  | 0.08 | 0.20 | 1.01 |  | 4.09 µM | 0.61 |  |  | 1.03 |  | 16.65 µM | 0.46 | 7.7 µM |
| Cc1ccc2nc(C)c(C(=O)NCc3ccco3)n2c1 [GSK1829819A] | 0,00 | 0.00 | 0.08 | 0.66 | FALSE | 3.9 µM | 0.37 | TRUE | 1,08 | 1.08 | 0.61 µM | 0.61 µM | 2.13 | 1.3 µM |
| CCN(Cc1ccc2c(c1)OCO2)C(=O)CSc1nc(NC)c2ccccc2n1 [GSK1859936A] |  | 0.07 | 0.54 | 1.03 |  | 4.14 µM | 0.63 |  |  | 1.00 |  | 16.65 µM | 0.17 | 2.8 µM |
